The numbers were not newly measured in patent publication US20080139510A1, “Treatment of migraine headaches with sublingual amino acids” (priority 2006, published 2008), which cites them from elsewhere.

The structures appear in SMILES notation.

In this data set the test system is migraine attack. The following applies: oral administration, tablet or capsule.

On to `N[C@@H](Cc1c[nH]c2ccc(O)cc12)C(=O)O` [5-HTP, 5-hydroxytryptophan], for which the “aborting or significantly mitigating pain after onset of migraine attack” value is “ineffective”.
